The record followed here is US20240218022A1, “ANTI-VISTA MACROCYCLIC PEPTIDES AND COMPOSITIONS” (BRISTOL-MYERS SQUIBB COMPANY, priority 2022, published 2024).

Positions of bridges follow the written chain, without caps; N, C: chain ends. Non-standard residues stand in square brackets, D forms with d. Residues, ends and D or L forms follow the SMILES beside them. ξ: configuration not given here. Cit = NC(=O)NCCC[C@H](N)C(=O)O; Ile(3ξ) = CCC(C)[C@H](N)C(=O)O; Ahp(2) = CCCCC[C@H](N)C(=O)O; NHexGly = CCCCCCNCC(=O)O; Nle = CCCC[C@H](N)C(=O)O; Orn = NCCC[C@H](N)C(=O)O; Nva = CCC[C@H](N)C(=O)O; Abu = CC[C@H](N)C(=O)O

For this experiment, the target named is T1, mouse VISTA (mVISTA) (Mus musculus, UniProt Q9D659).
T1 construct: expressed in transfected cells; host or cells: Human embryonic kidney 293T cells
T1 sequence (Q9D659 33-308): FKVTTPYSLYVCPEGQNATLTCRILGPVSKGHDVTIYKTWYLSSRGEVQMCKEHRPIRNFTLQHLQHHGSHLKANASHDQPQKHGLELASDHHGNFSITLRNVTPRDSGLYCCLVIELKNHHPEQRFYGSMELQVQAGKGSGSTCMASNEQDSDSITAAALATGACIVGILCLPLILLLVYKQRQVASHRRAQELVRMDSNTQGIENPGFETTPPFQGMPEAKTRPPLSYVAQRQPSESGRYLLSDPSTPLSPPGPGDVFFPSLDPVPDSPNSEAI
Description: Cell-Based Binding High-Content Assay For mVISTA (HC CBA mVISTA). The note with it: 293T cells expressing mouse VISTA; competition with biotinylated peptide (2 nM); read-out: HC CBA mVISTA IC50. An outline of the steps: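 Competition of compound with a biotinylated peptide (final 2 nM, 30 min at RT) for binding to mVISTA on 293T cells, run under no-wash or wash (1 h compound preincubation then removal) formats. Readout by Alexa 647–streptavidin imaging on a high-content platform; four-parameter logistic fit gave IC50.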
What is called IC50 is the concentration that gives 50% inhibition. With `CCCCCCN1CC(=O)N[C@@H](Cc2ccc(O)cc2)C(=O)N[C@@H](CCCC)C(=O)NCC(=O)N[C@@H](CCCNC(=N)N)C(=O)N[C@@H](CC(C)C)C(=O)N[C@@H](CCCCC)C(=O)N2CCC[C@H]2C(=O)N[C@@H](C(C)C)C(=O)N[C@@H](CO)C(=O)N[C@H](C(=O)NCC(N)=O)CSCC(=O)N[C@@H](Cc2ccccc2)C(=O)N[C@@H](Cc2ccc(O)cc2)C(=O)N[C@@H](CC(=O)O)C1=O` [Example 1050] ({CH2CO}-FYD[NHexGly]Y[Nle]GRL[Ahp(2)]PVSCG-NH2; thioether N-14), the IC50 is 29.9 nM. For `CCCCCCN1CC(=O)N[C@@H](Cc2ccc(O)cc2)C(=O)N[C@@H](CCCCN)C(=O)N[C@@H](CC(=O)O)C(=O)N[C@@H](CCCN)C(=O)N[C@@H](CC(C)C)C(=O)N[C@@H](CCCCC)C(=O)N2CCC[C@H]2C(=O)N[C@@H](C(C)C)C(=O)N[C@@H](CO)C(=O)N[C@H](C(=O)NCC(=O)O)CSCC(=O)N[C@@H](Cc2ccccc2)C(=O)N[C@@H](Cc2ccc(O)cc2)C(=O)N[C@@H](CC(=O)O)C1=O` [Example 1051] ({CH2CO}-FYD[NHexGly]YKD[Orn]L[Ahp(2)]PVSCG-OH; thioether N-14), the IC50 stood at 11.5 nM. In the case of `CCCCCCN1CC(=O)N[C@@H](Cc2ccc(O)cc2)C(=O)N[C@@H](CCCCN)C(=O)N[C@@H](CC(=O)O)C(=O)N[C@@H](CCCNC(=N)N)C(=O)N[C@@H](CC(C)C)C(=O)N[C@@H](CCCCC)C(=O)N2CCC[C@H]2C(=O)N[C@@H](C(C)C)C(=O)N[C@@H](CO)C(=O)N[C@H](C(=O)NCC(=O)O)CSCC(=O)N[C@@H](Cc2ccccc2)C(=O)N[C@@H](Cc2ccc(O)cc2)C(=O)N[C@@H](CC(=O)O)C1=O` [Example 1052] ({CH2CO}-FYD[NHexGly]YKDRL[Ahp(2)]PVSCG-OH; thioether N-14) it was 27.1 nM. Under `CCCCCCN1CC(=O)N[C@@H](Cc2ccc(O)cc2)C(=O)N[C@@H](CCCCN)C(=O)NCC(=O)N[C@@H](CCCNC(=N)N)C(=O)N[C@@H](CC(C)C)C(=O)N[C@@H](CCCCC)C(=O)N2CCC[C@H]2C(=O)N[C@@H](C(C)C)C(=O)N[C@@H](CO)C(=O)N[C@H](C(=O)NCC(=O)O)CSCC(=O)N[C@@H](Cc2ccccc2)C(=O)N[C@@H](Cc2ccc(O)cc2)C(=O)N[C@@H](CC(=O)O)C1=O` [Example 1053] ({CH2CO}-FYD[NHexGly]YKGRL[Ahp(2)]PVSCG-OH; thioether N-14) stands 20.7 nM. In the case of `CCCCCCN1CC(=O)N[C@@H](Cc2ccc(O)cc2)C(=O)N[C@@H](C(C)C)C(=O)NCC(=O)N[C@@H](CCCNC(=N)N)C(=O)N[C@@H](CC(C)C)C(=O)N[C@@H](CCCCC)C(=O)N2CCC[C@H]2C(=O)N[C@@H](C(C)C)C(=O)N[C@@H](CO)C(=O)N[C@H](C(=O)NCC(N)=O)CSCC(=O)N[C@@H](Cc2ccccc2)C(=O)N[C@@H](Cc2ccc(O)cc2)C(=O)N[C@@H](CC(=O)O)C1=O` [Example 1054] ({CH2CO}-FYD[NHexGly]YVGRL[Ahp(2)]PVSCG-NH2; thioether N-14) it was 29.7 nM; in that of `CCCCCCN1CC(=O)N[C@@H](Cc2ccc(O)cc2)C(=O)N[C@@H](C(C)CC)C(=O)NCC(=O)N[C@@H](CCCNC(=N)N)C(=O)N[C@@H](CC(C)C)C(=O)N[C@@H](CCCCC)C(=O)N2CCC[C@H]2C(=O)N[C@@H](C(C)C)C(=O)N[C@@H](CO)C(=O)N[C@H](C(=O)NCC(N)=O)CSCC(=O)N[C@@H](Cc2ccccc2)C(=O)N[C@@H](Cc2ccc(O)cc2)C(=O)N[C@@H](CC(=O)O)C1=O` (stereo partly shown) [Example 1055] ({CH2CO}-FYD[NHexGly]Y[Ile(3ξ)]GRL[Ahp(2)]PVSCG-NH2; thioether N-14), 36.9 nM. For `CCCCCCN1CC(=O)N[C@@H](Cc2ccc(O)cc2)C(=O)N[C@@H](CCCCC)C(=O)N[C@@H](CCCCN)C(=O)N[C@@H](CCCNC(=N)N)C(=O)N[C@@H](CC(C)C)C(=O)N[C@@H](CCCCC)C(=O)N2CCC[C@H]2C(=O)N[C@@H](C(C)C)C(=O)N[C@@H](CO)C(=O)N[C@H](C(=O)NCC(N)=O)CSCC(=O)N[C@@H](Cc2ccccc2)C(=O)N[C@@H](Cc2ccc(O)cc2)C(=O)N[C@@H](CC(=O)O)C1=O` [Example 1056] ({CH2CO}-FYD[NHexGly]Y[Ahp(2)]KRL[Ahp(2)]PVSCG-NH2; thioether N-14), the IC50 was 17.1 nM. In the case of `CCCCCCN1CC(=O)N[C@@H](Cc2ccc(O)cc2)C(=O)N[C@@H](CCCCC)C(=O)N[C@@H](CCC(=O)O)C(=O)N[C@@H](CCCNC(=N)N)C(=O)N[C@@H](CC(C)C)C(=O)N[C@@H](CCCCC)C(=O)N2CCC[C@H]2C(=O)N[C@@H](C(C)C)C(=O)N[C@@H](CO)C(=O)N[C@H](C(=O)NCC(N)=O)CSCC(=O)N[C@@H](Cc2ccccc2)C(=O)N[C@@H](Cc2ccc(O)cc2)C(=O)N[C@@H](CC(=O)O)C1=O` [Example 1057] ({CH2CO}-FYD[NHexGly]Y[Ahp(2)]ERL[Ahp(2)]PVSCG-NH2; thioether N-14) it was 35.1 nM.

In the case of `CCCCCCN1CC(=O)N[C@@H](Cc2ccc(O)cc2)C(=O)N[C@@H](CCCCN)C(=O)N[C@@H](CC(N)=O)C(=O)N[C@@H](CCCNC(=N)N)C(=O)N[C@@H](CC(C)C)C(=O)N[C@@H](CCCCC)C(=O)N2CCC[C@H]2C(=O)N[C@@H](C(C)C)C(=O)N[C@@H](CO)C(=O)N[C@H](C(=O)NCC(=O)O)CSCC(=O)N[C@@H](Cc2ccccc2)C(=O)N[C@@H](Cc2ccc(O)cc2)C(=O)N[C@@H](CC(=O)O)C1=O` [Example 1058] ({CH2CO}-FYD[NHexGly]YKNRL[Ahp(2)]PVSCG-OH; thioether N-14), the IC50 is 38.7 nM.

Turning to `CCCCCCN1CC(=O)N[C@@H](Cc2ccc(O)cc2)C(=O)N[C@@H](C(C)CC)C(=O)NCC(=O)N[C@@H](CCCNC(=N)N)C(=O)N[C@@H](CC(C)C)C(=O)N[C@@H](CCCCC)C(=O)N2CCC[C@H]2C(=O)N[C@@H](C(C)C)C(=O)N[C@@H](CO)C(=O)N[C@H](C(=O)NCC(=O)O)CSCC(=O)N[C@@H](Cc2ccccc2)C(=O)N[C@@H](Cc2ccc(O)cc2)C(=O)N[C@@H](CC(=O)O)C1=O` (stereo partly shown) [Example 1059] ({CH2CO}-FYD[NHexGly]Y[Ile(3ξ)]GRL[Ahp(2)]PVSCG-OH; thioether N-14), the IC50 was 30 nM. Under `CCCCCCN1CC(=O)N[C@@H](Cc2ccc(O)cc2)C(=O)N[C@@H](CCC)C(=O)NCC(=O)N[C@@H](CCCNC(=N)N)C(=O)N[C@@H](CC(C)C)C(=O)N[C@@H](CCCCC)C(=O)N2CCC[C@H]2C(=O)N[C@@H](C(C)C)C(=O)N[C@@H](CO)C(=O)N[C@H](C(=O)NCC(N)=O)CSCC(=O)N[C@@H](Cc2ccccc2)C(=O)N[C@@H](Cc2ccc(O)cc2)C(=O)N[C@@H](CC(=O)O)C1=O` [Example 1060] ({CH2CO}-FYD[NHexGly]Y[Nva]GRL[Ahp(2)]PVSCG-NH2; thioether N-14) stands 29.9 nM; under `CCCCCCN1CC(=O)N[C@@H](Cc2ccc(O)cc2)C(=O)N[C@@H](CCC)C(=O)NCC(=O)N[C@@H](CCCNC(=N)N)C(=O)N[C@@H](CC(C)C)C(=O)N[C@@H](CCCCC)C(=O)N2CCC[C@H]2C(=O)N[C@@H](C(C)C)C(=O)N[C@@H](CO)C(=O)N[C@H](C(=O)NCC(=O)O)CSCC(=O)N[C@@H](Cc2ccccc2)C(=O)N[C@@H](Cc2ccc(O)cc2)C(=O)N[C@@H](CC(=O)O)C1=O` [Example 1061] ({CH2CO}-FYD[NHexGly]Y[Nva]GRL[Ahp(2)]PVSCG-OH; thioether N-14), 46.3 nM; under `CCCCCCN1CC(=O)N[C@@H](Cc2ccc(O)cc2)C(=O)N[C@@H](CC)C(=O)NCC(=O)N[C@@H](CCCNC(=N)N)C(=O)N[C@@H](CC(C)C)C(=O)N[C@@H](CCCCC)C(=O)N2CCC[C@H]2C(=O)N[C@@H](C(C)C)C(=O)N[C@@H](CO)C(=O)N[C@H](C(=O)NCC(=O)O)CSCC(=O)N[C@@H](Cc2ccccc2)C(=O)N[C@@H](Cc2ccc(O)cc2)C(=O)N[C@@H](CC(=O)O)C1=O` [Example 1062] ({CH2CO}-FYD[NHexGly]Y[Abu]GRL[Ahp(2)]PVSCG-OH; thioether N-14), 15.2 nM.

Turning to `CCCCCCN1CC(=O)N[C@@H](Cc2ccc(O)cc2)C(=O)N[C@@H](C(C)C)C(=O)NCC(=O)N[C@@H](CCCNC(=N)N)C(=O)N[C@@H](CC(C)C)C(=O)N[C@@H](CCCCC)C(=O)N2CCC[C@H]2C(=O)N[C@@H](C(C)C)C(=O)N[C@@H](CO)C(=O)N[C@H](C(=O)NCC(=O)O)CSCC(=O)N[C@@H](Cc2ccccc2)C(=O)N[C@@H](Cc2ccc(O)cc2)C(=O)N[C@@H](CC(=O)O)C1=O` [Example 1063] ({CH2CO}-FYD[NHexGly]YVGRL[Ahp(2)]PVSCG-OH; thioether N-14), the IC50 was found to be 28.6 nM.

Turning to `CCCCCCN1CC(=O)N[C@@H](Cc2ccc(O)cc2)C(=O)N[C@@H](CCCCC)C(=O)NCC(=O)N[C@@H](CCCNC(N)=O)C(=O)N[C@@H](CC(C)C)C(=O)N[C@@H](CCCCC)C(=O)N2CCC[C@H]2C(=O)N[C@@H](C(C)C)C(=O)N[C@@H](CO)C(=O)N[C@H](C(=O)NCC(N)=O)CSCC(=O)N[C@@H](Cc2ccccc2)C(=O)N[C@@H](Cc2ccc(O)cc2)C(=O)N[C@@H](CC(=O)O)C1=O` [Example 1064] ({CH2CO}-FYD[NHexGly]Y[Ahp(2)]G[Cit]L[Ahp(2)]PVSCG-NH2; thioether N-14), the IC50 came out at 9.3 nM. In the case of `CCCCCCN1CC(=O)N[C@@H](Cc2ccc(O)cc2)C(=O)N[C@@H](CCCC)C(=O)N[C@@H](CC(=O)O)C(=O)N[C@@H](CCCNC(=N)N)C(=O)N[C@@H](CC(C)C)C(=O)N[C@@H](CCCCC)C(=O)N2CCC[C@H]2C(=O)N[C@@H](C(C)C)C(=O)N[C@@H](C(C)C)C(=O)N[C@H](C(=O)NCC(=O)O)CSCC(=O)N[C@@H](Cc2ccccc2)C(=O)N[C@@H](Cc2ccc(O)cc2)C(=O)N[C@@H](CC(=O)O)C1=O` [Example 1065] ({CH2CO}-FYD[NHexGly]Y[Nle]DRL[Ahp(2)]PVVCG-OH; thioether N-14) it was 15.6 nM.
